What was measured:
[1] = tested on: 4 BRAF(v600E) cell lines (A375, RKO, Colo 201, SK-MEL-28); test: 2D and 3D proliferation in BRAF V600E control cell lines; assay type: cell-based, human; details: low serum, soft agar, or high serum, adherent conditions
Method: (§1) 217 The coordinates and structure factors of the structures have been deposited at the
(§2) 218 Protein Data Bank with the accession codes PDB Code 6GJ5, 6GJ6, 6GJ7, 6GJ8.
(§3) 221 Measurements of various protein–protein interactions were performed using the Alpha
(§4) 222 Screen technology developed by Perkin Elmer. Recombinant RAS proteins (H-, N-, K-
(§5) 223 RAS variants; all KRAS variants are based on KRAS isoform 4B (uniprot id P01116-2);
(§6) 224 KRAS (G12D) 1-169, N-terminal 6His-tag, C-terminal avi-tag was from Xtal
(§7) 225 BioStructures, Inc., KRAS (G12C) 1-169, C-terminal avi-tag, biotinylated, mutations:
(§8) 226 C51S, C80L, C118S, NRAS(wt) 1-172, C-terminal avi-tag, biotinylated; HRAS(wt) 1-
(§9) 227 166, C-terminal avi-tag, biotinylated). Biotinylation was performed in vitro with
228 recombinant BirA biotin-protein ligase as recommended by the manufacturer (Avidity
229 LLC, Aurora, Colorado, USA). Interacting proteins such as SOS1 (564-1049, N-terminal […]
(§10) 231 PI3KA- RBD (160-317, N-term-HIS_GST-tag) were expressed as glutathione S […]
(§11) 245 for 60 min in the dark at room temperature. Single oxygen induced fluorescence was
(§12) 246 measured at an Enspire multimode plate reader (Perkin Elmer) according to the
(§13) 247 manufacturer’s recommendations. Data were analyzed using the GraphPad Prism data […]
275 IgG secondary antibody (Dako #P0448) and detected with ECL (GE Healthcare Life […]

[2] = tested on: 4 BRAF(v600E) cell lines (A375, RKO, Colo 201, SK-MEL-28); test: pERK modulation in BRAF V600E control cell lines; assay type: cell-based, human
Method: as §1, §2, §3, §4, §5, §6, §7, §8, §9
228 recombinant BirA biotin-protein ligase as recommended by the manufacturer (Avidity […]
as §10, §11, §12, §13
313 added according to manufacturer’s instructions. Fluorescence intensity was determined
314 using a fluorescence reader (2030 VICTOR X5, Perkin Elmer). […]
319 MAPK pathway signaling (pERK, pAKT quantification) […]

[3] = molecular target: SOScat-catalyzed nucleotide exchange on RAS (Homo sapiens, UniProt P01116); test: SOS1 nucleotide exchange assay (BODIPY-GDP)
[4] = molecular target: GTP-KRASG12D::SOS1 (Homo sapiens, UniProt P01116, G12D); test: KRASG12D::SOS1 GTP TR-FRET assay
GTP-KRASG12D::SOS1, sequence (P01116 1-169 isoform P01116-2 G12D): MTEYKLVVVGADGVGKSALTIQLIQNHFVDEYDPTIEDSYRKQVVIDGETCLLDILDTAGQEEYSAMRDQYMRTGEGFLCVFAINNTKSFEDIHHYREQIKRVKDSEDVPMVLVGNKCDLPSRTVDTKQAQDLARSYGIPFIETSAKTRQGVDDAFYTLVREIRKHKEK

SOScat-catalyzed nucleotide exchange on RAS, sequence (P01116 1-169 isoform P01116-2 limits assumed): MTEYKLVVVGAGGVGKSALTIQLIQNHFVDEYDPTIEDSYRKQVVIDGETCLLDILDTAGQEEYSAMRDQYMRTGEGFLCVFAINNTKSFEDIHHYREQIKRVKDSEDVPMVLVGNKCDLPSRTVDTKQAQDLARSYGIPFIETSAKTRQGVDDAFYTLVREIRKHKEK

SMILES	antiproliferative effect [1]	inhibition of pERK [2]	SOScat-mediated exchange ([3]; highest concentrations)	SOS1-catalyzed nucleotide exchange ([3]; several concentrations)	EC50 [4] [µM]	IC50 [4] [µM]
Cn1cnc(Cn2ccc3ccc(CNCc4[nH]c5ccccc5c4[C@H]4NC(=O)c5ccc(O)cc54)cc32)c1 [Compound 1]	No antiproliferative effect	no inhibition of pERK	full inhibition	inhibits the rate of nucleotide exchange in a dose-dependent manner		
CN(C)Cc1[nH]c2ccccc2c1[C@H]1NC(=O)c2ccc(O)cc21 [Compound 18]					33	33

Source: article PMC6689897, “Drugging an undruggable pocket on KRAS” (Proceedings of the National Academy of Sciences of the …, 2019)
